Results as given in patent publication US9738634B2, “Heterocyclic amide compound and herbicide” (SYNGENTA PARTICIPATIONS AG, priority 2013, dated 2017).

Key:
Assay type in all cases: in vivo
Conditions in all cases: treatment dosage 80 g/ha
black-grass [1] = experiment: Test Example 3: weedkilling efficacy through soil treatment; H: black-grass
Summary of the method: (§1)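 Crop and weed responses were judged three weeks after a uniform surface spray of the water-diluted emulsion at the given g/ha rate. Seeds sat beneath about 1.5 cm of sterilized diluvial soil, and boxes stood in a greenhouse at 25 to 30° C.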

Italian ryegrass [2] = experiment: Test Example 3: weedkilling efficacy through soil treatment; I: Italian ryegrass
Summary of the method: as §1

common wind-grass [3] = experiment: Test Example 3: weedkilling efficacy through soil treatment; J: common wind-grass
Summary of the method: as §1

wheat [4] = experiment: Test Example 3: soil treatment, effect on crop; e: wheat
Summary of the method: as §1

rapeseed [5] = experiment: Test Example 3: soil treatment, effect on crop; g: rapeseed
Summary of the method: as §1

black-grass [6] = experiment: Test Example 4: weedkilling efficacy by foliar treatment; H: black-grass
Summary of the method: (§2)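 Seeds are spot-sown into sterilized diluvial soil and covered with about 1.5 cm of soil. After 14 days' greenhouse growth at 25 to 30° C, plants are sprayed on stems and leaves with diluted emulsion at the stated g/ha rate, then scored at 3 weeks.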

Italian ryegrass [7] = experiment: Test Example 4: weedkilling efficacy by foliar treatment; I: Italian ryegrass
Summary of the method: as §2

common wind-grass [8] = experiment: Test Example 4: weedkilling efficacy by foliar treatment; J: common wind-grass
Procedure: (§3) Testing of Weedkilling Efficacy by Foliar Treatment
(§4) Sterilized diluvial soil was introduced into 21 cm long, 13 cm wide, 7 cm deep plastic boxes, and seeds of crabgrass, green foxtail, barnyard grass, wild oat, black-grass, Italian ryegrass, common wind-grass, Indian mallow, redroot pigweed, fig-leafed goosefoot, chickweed, catchweed, birds-eye speedwell, corn, soybean, rice, wheat, beet and rapeseed were each spot-sown, and covered with about 1.5 cm of soil, then the plants were grown in a greenhouse at 25 to 30° C.
(§5) After they had grown for 14 days, emulsions of compounds of the present invention prepared according to compounding example 2 were diluted with water to give the specified dosages, and applied uniformly onto the stem and leaf parts with a small sprayer. 3 weeks after the pesticide treatment the effect on each type of plant was investigated on the basis of the assessment criteria of test example 1.
(§6) A: barnyard grass, B: bulrush, C: oval-leafed pondweed, D: crabgrass, E: green foxtail, F: barnyard grass, G: wild oat, H: black-grass, I: Italian ryegrass, J: common wind-grass, K: Indian mallow, L: redroot pigweed, M: fig-leafed goosefoot, N: chickweed, O: catchweed, p: birds-eye speedwell, a: transplanted rice, b: directly sown rice, c: corn, d: soybean, e: wheat, f: beet, g: rapeseed
(§7) Further, pesticide dosage (g/ha) indicates the concentration regulated such that treatment was with only the stated number of grams (g), when calculated per hectare (ha).

wheat [9] = experiment: Test Example 4: foliar treatment, effect on crop; e: wheat
Summary of the method: as §2

rapeseed [10] = experiment: Test Example 4: foliar treatment, effect on crop; g: rapeseed
Procedure: as §3, §4, §5, §6, §7

CC1=C(c2ccccc2)C(=O)N(C(C)(C)C(=O)Nc2cc(Cl)ccn2)CO1 [B-2-28]
H (black-grass) weedkilling efficacy grade (black-grass [1]): 5 (weed kill ratio 90% or more, (practically complete withering)) | I (Italian ryegrass) weedkilling efficacy grade (Italian ryegrass [2]): 5 (weed kill ratio 90% or more, (practically complete withering)) | J (common wind-grass) weedkilling efficacy grade (common wind-grass [3]): 5 (weed kill ratio 90% or more, (practically complete withering)) | e (wheat) effect on crop grade (wheat [4]): 0 (weed kill ratio 5% or less (practically no effect)) | g (rapeseed) effect on crop grade (rapeseed [5]): 0 (weed kill ratio 5% or less (practically no effect)) | H (black-grass) weedkilling efficacy grade (black-grass [6]): 5 (weed kill ratio 90% or more, (practically complete withering)) | I (Italian ryegrass) weedkilling efficacy grade (Italian ryegrass [7]): 5 (weed kill ratio 90% or more, (practically complete withering)) | J (common wind-grass) weedkilling efficacy grade (common wind-grass [8]): 5 (weed kill ratio 90% or more, (practically complete withering)) | e (wheat) effect on crop grade (wheat [9]): 0 (weed kill ratio 5% or less (practically no effect)) | g (rapeseed) effect on crop grade (rapeseed [10]): 3 (weed kill ratio 40% or more, less than 70%)

CC1=C(c2ccccc2)C(=O)N(C(C)(C)C(=O)Nc2cc(C)ccn2)CO1 [B-2-52]
H (black-grass) weedkilling efficacy grade (black-grass [1]): 4 (weed kill ratio 70% or more, less than 90%) | I (Italian ryegrass) weedkilling efficacy grade (Italian ryegrass [2]): 5 (weed kill ratio 90% or more, (practically complete withering)) | J (common wind-grass) weedkilling efficacy grade (common wind-grass [3]): 5 (weed kill ratio 90% or more, (practically complete withering)) | e (wheat) effect on crop grade (wheat [4]): 0 (weed kill ratio 5% or less (practically no effect)) | g (rapeseed) effect on crop grade (rapeseed [5]): 1 (weed kill ratio 5% or more, less than 20%) | H (black-grass) weedkilling efficacy grade (black-grass [6]): 2 (weed kill ratio 20% or more, less than 40%) | I (Italian ryegrass) weedkilling efficacy grade (Italian ryegrass [7]): 3 (weed kill ratio 40% or more, less than 70%) | J (common wind-grass) weedkilling efficacy grade (common wind-grass [8]): 5 (weed kill ratio 90% or more, (practically complete withering)) | e (wheat) effect on crop grade (wheat [9]): 0 (weed kill ratio 5% or less (practically no effect)) | g (rapeseed) effect on crop grade (rapeseed [10]): 0 (weed kill ratio 5% or less (practically no effect))
